How the values were obtained:
Rhizoctonia solani = experiment: Contact evaluation (microtiter plate); type: cell-based; conditions: Rhizoctinia solani
Method: (§1) Compound solution: Contact evaluations were conducted to determine the anti-fungal activity of each compound against Botrytis cinerea, Sclerotinia sclerotiorum, Pythium aphanidermatum, Rhizoctonia solani, Cercospora arachidicola, Mycosphaerella fijiensis, and Monilinia laxa. Five milligrams of each compound were dissolved in 0.5 milliliter of DMSO for a compound stock solution of 1.0% w/v. Compound stock solutions were serial diluted with DMSO to 20, 10, and 2 ppm final well concentration.
(§2) Fungi preparation: Botrytis cinerea spores were taken from 6-week-old cultures grown at 22C on full strength potato dextrous agar (PDA) plates. Sclerotinia sclerotiorum, Pythium aphanidermatum, Rhizoctonia solani, and Monilinia laxa mycelia were taken from 4- to 10-day-old shake flask cultures grown at room temperature on full strength potato dextrous broth (PDB). Cercospora arachidicola mycelia were taken from 10- to 14-day-old shake flask cultures grown at room temperature on a full strength PDB amended with peanut oil. Mycosphaerella fijiensis mycelia were taken from 10- to 14-day-old shake flask cultures grown at room temperature on V8 juice broth. Sclerotinia sclerotiorum, Pythium aphanidermatum, Rhizoctonia solani, Cercospora arachidicola, and Mycosphaerella fijiensis mycelia (0.4 g mycelia) were blended for 45 seconds in 20 mL sterile de-ionized water. Monilinia laxa mycelia (1 g mycelia) was blended for 45 seconds in 30 mL of sterile de-ionized water. Botrytis cinerea spores were diluted with quarter strength PDB to 1×10^5 spores/mL final well concentration. All mycelia were diluted in water (1:5 mycelia:water) before distributing into the wells.
(§3) Microtiter plate preparation: Compound solution (10:L), quarter strength PDB (900:L) and fungi preparation (100:L) were sequentially distributed into 48-well microtiter plates (n=3 replications/compound/rate). A blank consisted of quarter strength PDB and fungi preparation. Commercial fungicide controls (100 ppm diluted with water) consisted of Scala for Botrytis cinerea, Dithane F-45 for Mycosphaerella fijiensis, and Benlate for Sclerotinia sclerotiorum, Pythium aphanidermatum, Rhizoctonia solani, Cercospora arachidicola, and Monilinia laxa. Plates were shaken in a circular rotator at room temperature for 20 minutes, then incubated at 25 C for 24 to 72 hours, depending on the pathogen.
(§4) Fungal control ratings: Fungal growth in wells containing the compounds were compared to the positive control and fungal inhibition was rated as full, partial, or none. Final readings were the average of the three wells (Table 1).

Botrytis cinerea [1] = experiment: Contact evaluation (microtiter plate); type: cell-based
Method: as §1, §2, §3, §4

Mycosphaerella fijiensis = experiment: Contact evaluation (microtiter plate); type: cell-based
Method: as §1, §2, §3, §4

Monilinia laxa = experiment: Contact evaluation (microtiter plate); type: cell-based
Method: as §1, §2, §3, §4

Pythium aphanidermatum = experiment: Contact evaluation (microtiter plate); type: cell-based
Method: as §1, §2, §3, §4

Cercospora arachidicola = experiment: Contact evaluation (microtiter plate); type: cell-based
Method: as §1, §2, §3, §4

Sclerotinia sclerotiorum = experiment: Contact evaluation (microtiter plate); type: cell-based; conditions: Sclerotinia sclerotionum
Method: as §1, §2, §3, §4

Botrytis cinerea [2] = experiment: Detached bean leaf bioassay, fungal control; type: in vivo; conditions: three days after inoculation, 100 minus percent necrotic area
Method: (§5) Detached Bean Leaf Bioassay
(§6) Compound solution: Compound solutions were prepared by diluting compound stock solutions (1.0% w/v compound in DMSO) to 200 ppm with 0.01% w/v Triton X-100.
Spore solution preparation: Botrytis cinerea spores were taken from 6-week-old cultures grown at 22 C on full strength potato dextrous agar (PDA) plates and harvested in 1:16 frozen orange juice concentrate:water. Botrytis cinerea spore solutions were prepared by diluting spore cultures to 5×10^4 spores/mL with 1:16 frozen orange juice concentrate:water.
(§7) Plant material: Middle trifoliate leaves of greenhouse grown Phaseolus vulgaris (Bush bean cv. Blue Lake 274) were excised and placed on a plastic grid above a tray containing moist towels.
Treatment method: One half of the adaxial surface of the leaf was treated with the compound solution (100:L) using a 3 cm Bacti Cell Spreader. A blank consisted of 0.01% w/v Triton X-100. A commercial fungicide control (200 ppm diluted with water) consisted of Scala. […]
Fungal control rating: Three days after inoculation with Botrytis, the percent necrotic area under the inoculation droplet was determined. Since the areas under the blank (0.01% w/v Triton X-100) were 100% infected, fungal control was expressed as 100 minus the percent necrotic area, and thus 0% infected is 100% fungal control (n=3 leaves/compound, 5 inoculation droplets/leaf, Table 2).

[3] = test system: Phaseolus vulgaris (Bush bean cv. Blue Lake 274) leaves; experiment: Detached bean leaf bioassay, phytotoxicity rating; type: in vivo
Method: as §5, §6, §7
Treatment method: One half of the adaxial surface of the leaf was treated with the compound solution (100:L) using a 3 cm Bacti Cell Spreader. A blank consisted of 0.01% w/v Triton X-100. A commercial fungicide control (200 ppm diluted with water) consisted of Scala. After the solutions dried, the trays containing the leaves were covered and held one day in a growth chamber (22 C). The adaxial surfaces of the leaves were then inoculated with 5–60:L droplets of Botrytis cinerea spore solution.
Phytotoxicity ratings: Phytotoxicity was rated as 0=no phytotoxicity, l=slight phytotoxicity, 2=moderate phytotoxicity, or 3=excessive phytotoxicity (Table 2).

Structure (SMILES): Cc1ccc(-c2cc(-c3ccc(C)cc3)[n+](-c3ccccc3)c(-c3cccc(C)c3)c2)cc1.[O-][Cl+3]([O-])([O-])O [formula I]
- Control of fungi (full, partial, none) (Rhizoctonia solani; fungicide rate 2 ppm): None
- Control of fungi (full, partial, none) (Rhizoctonia solani; fungicide rate 10 ppm): Full
- Control of fungi (full, partial, none) (Rhizoctonia solani; fungicide rate 20 ppm): Full
- Control of fungi (full, partial, none) (Botrytis cinerea [1]; fungicide rate 2 ppm): Partial
- Control of fungi (full, partial, none) (Botrytis cinerea [1]; fungicide rate 10 ppm): Full
- Control of fungi (full, partial, none) (Botrytis cinerea [1]; fungicide rate 20 ppm): Full
- Control of fungi (full, partial, none) (Mycosphaerella fijiensis; fungicide rate 2 ppm): Full
- Control of fungi (full, partial, none) (Mycosphaerella fijiensis; fungicide rate 10 ppm): Full
- Control of fungi (full, partial, none) (Mycosphaerella fijiensis; fungicide rate 20 ppm): Full
- Control of fungi (full, partial, none) (Monilinia laxa; fungicide rate 2 ppm): Full
- Control of fungi (full, partial, none) (Monilinia laxa; fungicide rate 10 ppm): Full
- Control of fungi (full, partial, none) (Monilinia laxa; fungicide rate 20 ppm): Full
- Control of fungi (full, partial, none) (Pythium aphanidermatum; fungicide rate 2 ppm): Full
- Control of fungi (full, partial, none) (Pythium aphanidermatum; fungicide rate 10 ppm): Full
- Control of fungi (full, partial, none) (Pythium aphanidermatum; fungicide rate 20 ppm): Full
- Control of fungi (full, partial, none) (Cercospora arachidicola; fungicide rate 2 ppm): None
- Control of fungi (full, partial, none) (Cercospora arachidicola; fungicide rate 10 ppm): Full
- Control of fungi (full, partial, none) (Cercospora arachidicola; fungicide rate 20 ppm): Full
- Control of fungi (full, partial, none) (Sclerotinia sclerotiorum; fungicide rate 2 ppm): Full
- Control of fungi (full, partial, none) (Sclerotinia sclerotiorum; fungicide rate 10 ppm): Full
- Control of fungi (full, partial, none) (Sclerotinia sclerotiorum; fungicide rate 20 ppm): Full
- Botrytis cinerea control (200 ppm) (Botrytis cinerea [2]): 93%
- Phytotoxity (200 ppm) [3]: Slight

Reference: patent publication US7015239B2, “Fungicide for plants” (Valent BioSciences, Inc., priority 2003, dated 2006)
